Results taken from the NIST ThermoML archive (doi:10.1021/acs.jced.8b00521).

Test: xn = mol fraction of the nth substance listed
Conditions: Liquid; for mass density: Vibrating tube method; for viscosity: Capillary tube (Ostwald / Ubbelohde) method

CCCCCCCC(=O)OCC [ethyl octanoate] + CCCCCCCCCCCC(=O)OC
Conditions | mass density [kg/m3] | viscosity [mPa·s]
303.15 K, 12010 kPa, x2 = 0.6001 | 867 | –
303.15 K, 12020 kPa, x2 = 0.1999 | 865 | 1.7
303.15 K, 12020 kPa, x2 = 0.4999 | 867 | 2.08
303.15 K, 12030 kPa, x2 = 0.9 | 869 | 2.64
303.15 K, 12040 kPa, x2 = 0.4 | 866 | 1.94
303.15 K, 14940 kPa, x2 = 0.6001 | 869 | 2.3
303.15 K, 14970 kPa, x2 = 0.6999 | 870 | 2.44
303.15 K, 14970 kPa, x2 = 0.8001 | 870 | 2.56
303.15 K, 14980 kPa, x2 = 0.9 | 871 | 2.7
303.15 K, 15020 kPa, x2 = 0.1 | 866 | 1.64
303.15 K, 15040 kPa, x2 = 0.4999 | 868 | 2.13
303.15 K, 15070 kPa, x2 = 0.1999 | 867 | 1.75
303.15 K, 15070 kPa, x2 = 0.3001 | 867 | 1.88
303.15 K, 15080 kPa, x2 = 0.4 | 868 | 2
313.15 K, 100 kPa, x2 = 0.1 | 850 | 1.22
313.15 K, 100 kPa, x2 = 0.1999 | 850 | 1.31
313.15 K, 100 kPa, x2 = 0.3001 | 851 | 1.39
313.15 K, 100 kPa, x2 = 0.4 | 851 | 1.46
313.15 K, 100 kPa, x2 = 0.4999 | 851 | 1.55
313.15 K, 100 kPa, x2 = 0.6001 | 852 | 1.65
313.15 K, 100 kPa, x2 = 0.6999 | 852 | 1.75
313.15 K, 100 kPa, x2 = 0.8001 | 852 | 1.85
313.15 K, 100 kPa, x2 = 0.9 | 853 | 1.95
313.15 K, 2950 kPa, x2 = 0.6001 | 853 | 1.71
313.15 K, 2960 kPa, x2 = 0.8001 | 854 | 1.93
313.15 K, 2970 kPa, x2 = 0.6999 | 854 | 1.82
313.15 K, 2980 kPa, x2 = 0.1 | 851 | 1.25
313.15 K, 2980 kPa, x2 = 0.1999 | 852 | 1.34
313.15 K, 2990 kPa, x2 = 0.3001 | 852 | 1.43
313.15 K, 3030 kPa, x2 = 0.4 | 853 | 1.52
313.15 K, 3040 kPa, x2 = 0.4999 | 853 | 1.59
313.15 K, 3070 kPa, x2 = 0.9 | 855 | 2.03
313.15 K, 5960 kPa, x2 = 0.3001 | 854 | 1.48
313.15 K, 5990 kPa, x2 = 0.6999 | 856 | 1.89
313.15 K, 5990 kPa, x2 = 0.8001 | 856 | 1.99
313.15 K, 6000 kPa, x2 = 0.1 | 853 | 1.29
313.15 K, 6000 kPa, x2 = 0.1999 | 854 | 1.38
313.15 K, 6000 kPa, x2 = 0.6001 | 855 | 1.76
313.15 K, 6050 kPa, x2 = 0.4 | 854 | 1.56
313.15 K, 6090 kPa, x2 = 0.9 | 857 | 2.09
313.15 K, 6100 kPa, x2 = 0.4999 | 855 | 1.65
